One experiment has as its target T1, Trypsin (Bos taurus, UniProt P00760).
T1 construct: gene PRSS1
T1 sequence (P00760 24-246): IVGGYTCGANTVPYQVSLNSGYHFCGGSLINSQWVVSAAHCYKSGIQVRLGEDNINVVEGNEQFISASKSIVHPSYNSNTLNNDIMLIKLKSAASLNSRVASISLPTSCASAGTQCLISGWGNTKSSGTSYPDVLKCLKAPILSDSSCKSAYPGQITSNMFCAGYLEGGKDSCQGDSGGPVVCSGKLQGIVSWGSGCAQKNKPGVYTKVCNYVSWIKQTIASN
The experiment can be described thus: Trypsin-inhibitory assay. The note with it: for HillSlope / LogEC50: trypsin inhibition curve, nonlinear fit, variable slope, best-fit value. The class given is biochemical. On the procedure: Trypsin was freshly prepared at 400 pM in the assay buffer containing 0.1 M NaCl, 10 mM CaCl2, 0.005% Triton X-100, 0.1 M Tris-HCl pH 8.0. […] After incubation residual trypsin activity was measured by adding the quenched fluorescent peptide substrate Boc-Q-A-R- 7-amido-4-methyl-coumarin to a final concentration of 10 μM. The fluorescence increase upon the release of 7-amido-4-methyl-coumarin was monitored on Infinite M1000 Pro plate reader (Tecan) every 30 s using excitation and emission wavelengths of 360 and 460 nm, respectively.

Experiment [1] has as its system peptidyl-prolyl isomerase. The note with it: 10 μM inhibitor in Ec CFS translation reaction; Supplementary Fig. 19. On the procedure: For details, refer to a procedure overview in the Supplementary Methods. Briefly, E. coli S30 extract was prepared as described by Schwarz et al.[68] with minor modifications. Briefly, cells were cultivated in 5–10 L of filter-sterilized TBGG media (tryptone 12 g/L, yeast extract 24 g/L, glycerol 8 mL/L, glucose 1 g/L, KH2PO4 2.31 g/L, K2HPO4 2.54 g/L) to OD 3.5, pre-chilled with 5 × 200 or 10 × 200 mL of –80 °C pre-frozen packs of LB broth and spun at 2.5 kg for 15 min. The cell pellet from the final wash was resuspended in 200 % (vol/wt) of S30B buffer and disrupted using fluidic disruption (Constant Systems, continuous flow mode) at 20 kpsi at 4 °C. Cell homogenate was cleared by two consecutive 30 min centrifugation steps at 30 kg at 4 °C while collecting the top ¾ of supernatant every time. The final supernatant was adjusted to 0.4 M with 5 M NaCl followed by 45 min incubation at 42 °C in a water bath. […]
Fluorescence DHFR activity assay was performed by monitoring the change in NADPH fluorescence (Ex 340 nm, […]) upon its conversion to NADP^+ in 200 µL of buffer containing 20 mM Tris-HCl pH 7.5, 100 mM NaCl, 1 mM Mg(OAc)2, 0.012% Tween 20, 2.5 mM DTT in a black 96-well plate (Corning). […] Fluorescence changes were recorded for 4 h. […]

The subject of experiment [2] is Drosophila melanogaster fruit flies. The experiment can be described thus: Insecticidal activity assay (microinjection, LD50). The class given is in vivo. The settings on record: microinjection of 50 nL into female Drosophila melanogaster, lethal effects at 24 h; thrombin-cleaved cell-free Dc1a. On the procedure: The insecticidal activity of the Dc1a and its cell-free produced analog was tested by microinjection in female Drosophila melanogaster fruit flies aged 3–4 days with an average weight of 0.8–0.9 mg according to the previously described method. Briefly, the C-terminally unprocessed Dc1a (Dc1a-GTGSGG-[…]) was dissolved in water for injection, and water was used as the respective negative control. The thrombin-cleaved Dc1a sample (Dc1a-GTGSGG-R) contained thrombin and the respective amount of thrombin was added to the control sample. The injection volume was 50 nL and three repeats of seven doses (each in n = 8 fruit flies) were used for each Dc1a analog. Female Drosophila were cooled on ice before injection. […] The number of control flies affected at the respective post-injection time was subtracted from the number of affected flies.

Entries after “also recorded” stand apart in the source; their conditions may differ. Where a SMILES comes first, the peptide text is derived from it. Bridges are numbered along the chain shown (N, C = ends). Where no end group is shown, it is not given here.

For `CC[C@H](C)[C@H](NC(=O)[C@@H]1CCCN1C(=O)[C@@H]1CCCN1C(=O)[C@@H](NC(=O)[C@@H](N)CO)[C@@H](C)CC)C(=O)N[C@H]1CSSC[C@@H](C(=O)N[C@H](C(=O)N[C@@H](CCCCN)C(=O)O)[C@@H](C)O)NC(=O)[C@H](CCC(N)=O)NC(=O)CNC(=O)[C@H](CC(=O)O)NC(=O)[C@@H]2CCCN2C(=O)[C@H](Cc2ccccc2)NC1=O` [Cell-free_oMut-SFTI] (H-SIPPICFPDGQCTK-OH; disulfide 6-12; C-terminus assumed), at Trypsin, the HillSlope was -1.405 and the LogEC50 was 2.696 log10 [SFTI], pM.
Turning to `CC[C@H](C)[C@@H]1NC(=O)[C@@H]2CCCN2C(=O)[C@@H]2CCCN2C(=O)[C@H]([C@@H](C)CC)NC(=O)[C@H](CO)NC(=O)[C@H](CCCCN)NC(=O)[C@H]([C@@H](C)O)NC(=O)[C@@H]2CSSC[C@H](NC1=O)C(=O)N[C@@H](Cc1ccccc1)C(=O)N1CCC[C@H]1C(=O)N[C@@H](CC(=O)O)C(=O)NCC(=O)N[C@@H](CCCNC(=N)N)C(=O)N2` [Chem_cyc-SFTI], at Trypsin, the HillSlope is on record as -1.291 and the LogEC50 was 2.234 log10 [SFTI], pM.
Regarding `CO[C@H]1C[C@@H]2CC[C@@H](C)[C@@](O)(O2)C(=O)C(=O)N2CCCC[C@H]2C(=O)O[C@H]([C@H](C)C[C@@H]2CC[C@@H](O)[C@H](OC)C2)CC(=O)[C@H](C)/C=C(\C)[C@@H](O)[C@@H](OC)C(=O)[C@H](C)C[C@H](C)/C=C/C=C/C=C/1C` [rapamycin, Rapamycin], the “effect on the gain of hDHFR activity by exposure of GFP-hDHFR to lysate (post-translational capture)” value in experiment [1] is recorded as “eliminated the beneficial effect of protein exposure to lysate in Ec CFS”.
“Dc1a-GTGSGG-R (bicyclic or more) [cell-free produced Dc1a harboring GTGSGGR on its C-terminus after thrombin cleavage]”: the “insecticidal activity, in words” value in experiment [2] is on record as “showed the expected biological activity; also recorded: insecticidal activity similar to the synthetic wild-type toxin”.
As usually defined, the EC50 is the concentration at which the effect is half-maximal. Low values mean a more potent agent, high ones a less potent agent. Turning to “GGVCPKILKKCRRDSDCPGACICRGNGYCGSGSDGLPRGSIDTWV (disulfide 4-21, 11-23, 17-29) [wtMCoTI-RGS]”, a half-maximal effect on Trypsin (EC50) was put at 608 pM. Besides, the “trypsin-inhibitory activity / Ki for trypsin, compared in words” value at Trypsin (trypsin-inhibitory assay, comparison with the named counterpart) is recorded as “almost fourfold higher Ki for trypsin”.
On to “ILKKCRRDSDCPGACICRGNGYCGSGSDGGVCPKGAGRGSIDTWV (disulfide 5-17, 11-23, 15-32) [prmMcoTI-RGS]”, for which it took 167 pM to reach a half-maximal effect at Trypsin (EC50).
